Measurements: US10350220B2, “Methods and materials for reducing suppression of immune function” (Mayo Foundation for Medical Education and Research, priority 2011, dated 2019)

Tested on: CD14+ cells co-cultured with a renal cell tumor line (ACHN)
Test: HLA-DR expression of isolated CD14+ cells co-cultured with ACHN renal cell tumor line, flow cytometry
Settings: CD14+ cells exposed to ACHN cancer cells, RU486 5 or 20 μM added day 0; compared with cells exposed to cancer cells and not treated

With `CC#C[C@]1(O)CC[C@H]2[C@@H]3CCC4=CC(=O)CCC4=C3[C@@H](c3ccc(N(C)C)cc3)C[C@@]21C` [RU486, mifepristone] the “HLA-DR expression (MFI of HLA-DR staining, FIG. 1)” value was “more HLA-DR expression than cells exposed to cancer cells and not treated with RU486”.
